Literature values in patent publication US10550245B2, “Alternative methods to control crosslinking in high impact polystyrene” (Fina Technology, Inc., priority 2015, dated 2020).
Like-named read-outs stand apart in the source and are kept apart here. Each block holds one compound with its values, some of them ahead of it.

- Solubility (wt. %), Acetone (Table 2): 20 wt. %
- Solubility (wt. %), Benzene (Table 2): 43 wt. %
- Solubility (wt. %), Chloroform (Table 2): 39 wt. %
- Solubility (wt. %), Ethyl Acetate (Table 2): 46 wt. %
- Solubility (wt. %), Hexane (Table 2): 6 wt. %
- Solubility (wt. %), Methanol (Table 2): 1.4 wt. %
- Solubility (wt. %), Water (Table 2): <0.01 wt. %
Structure (SMILES): CCCCCCCCSc1nc(Nc2cc(C(C)(C)C)c(O)c(C(C)(C)C)c2)nc(SCCCCCCCC)n1 [BNX ® 565, 2,6-di-tert-butyl-4-(4,6-bis(octylthio)-1,3,5-triazin-2-ylamino)phenol]

Structure (SMILES): CC(C)(C)c1cc(CCC(=O)OCC(COC(=O)CCc2cc(C(C)(C)C)c(O)c(C(C)(C)C)c2)(COC(=O)CCc2cc(C(C)(C)C)c(O)c(C(C)(C)C)c2)COC(=O)CCc2cc(C(C)(C)C)c(O)c(C(C)(C)C)c2)cc(C(C)(C)C)c1O [BNX ® 1010, tetrakis[methylene-3(3′,5′-di-tert-butyl-4-hydroxyphenyl)propionate]methane]
- Solubility (10 g/100 ml Toluene) (10 g/100 ml Toluene, 25° C.): Clear (25° C.)
- Solubility, Acetone (at 25° C., Table 5B): 47%
- Solubility, Benzene (at 25° C., Table 5B): 56%
- Solubility, Chloroform (at 25° C., Table 5B): 71%
- Solubility, Ethanol (at 25° C., Table 5B): 1.5%
- Solubility, Ethyl Acetate (at 25° C., Table 5B): 46%
- Solubility, Hexane (at 25° C., Table 5B): 0.3%
- Solubility, Methanol (at 25° C., Table 5B): 1%
- Solubility, Methylene Chloride (at 25° C., Table 5B): 63%
- Solubility, Toluene (at 25° C., Table 5B): 60%
- Solubility, Water (at 25° C., Table 5B): <0.01% ^

- Solubility, 80% Caprolactam + 20% water (at 25° C.): 3 g/100 ml solvent
- Solubility, 95% Caprolactam + 5% water (at 25° C.): >20 g/100 ml solvent
- Solubility, Acetone (at 25° C.): 2 g/100 ml solvent
- Solubility, Benzene (at 25° C.): 0.01 g/100 ml solvent
- Solubility, Caprolactam (at 25° C.): >20 g/100 ml solvent
- Solubility, Chloroform (at 25° C.): 6 g/100 ml solvent
- Solubility, Ethyl Acetate (at 25° C.): 1 g/100 ml solvent
- Solubility, Hexane (at 25° C.): 0.01 g/100 ml solvent
- Solubility, Methanol (at 25° C.): 6 g/100 ml solvent
- Solubility, Water (at 25° C.): 0.01 g/100 ml solvent
Structure (SMILES): CC(C)(C)c1cc(CCC(=O)NCCCCCCNC(=O)CCc2cc(C(C)(C)C)c(O)c(C(C)(C)C)c2)cc(C(C)(C)C)c1O [BNX ® 1098]
